Experiment in all cases: biochemical
Common to all, as to parameters: KINOMEscan scanMAX active site-directed competition binding assay, percent of control, 468 kinases
What all share (details): competition binding, percent of control

One test has as its target T1, ABL1-nonphosphorylated (Homo sapiens, UniProt P00519).
T1 construct: nonphosphorylated
In a few lines: (§1)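 Single-concentration screen (100 μM S-carvone) in a competition binding panel of 468 human kinases (KINOMEscan scanMAX); results given as percent of control, hit cutoff 35%.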

The next test concerns the target BTK (Homo sapiens, UniProt Q06187). In a few lines:
as §1

The target in another test is CSNK1A1 (Homo sapiens, UniProt P48729). In a few lines: as §1
The target of the next test is T2, DCAMKL2 (Homo sapiens, UniProt Q8N568).
T2 construct: gene DCLK2
In a few lines: as §1

Another test concerns the target HCK (Homo sapiens, UniProt P08631). In a few lines: as §1
Another test deals with T3, HPK1 (Homo sapiens, UniProt Q92918).
T3 construct: gene MAP4K1
In a few lines: as §1

Another test deals with IRAK3 (Homo sapiens, UniProt Q9Y616). In a few lines:
as §1

For the next test, the target named is KIT(V559D,T670I) (Homo sapiens, UniProt P10721, T670I/V559D). In a few lines:
as §1

A further test deals with LCK (Homo sapiens, UniProt P06239). In a few lines:
as §1

The target of a further test is T4, LOK (Homo sapiens, UniProt O94804).
T4 construct: gene STK10
In a few lines:
as §1

The next test addresses MARK3 (Homo sapiens, UniProt P27448). In a few lines: as §1
Another test addresses MTOR (Homo sapiens, UniProt P42345). In a few lines:
as §1

In the next test the target is T5, PCTK3 (Homo sapiens, UniProt Q07002).
T5 construct: gene CDK18
In a few lines: as §1

The next test addresses PRKCI (Homo sapiens, UniProt P41743). In a few lines: as §1
For another test, the target named is RET(M918T) (Homo sapiens, UniProt P07949, M918T). In a few lines: as §1
For another test, the target named is RIPK2 (Homo sapiens, UniProt O43353). In a few lines:
as §1

A further test deals with T6, SgK110 (Homo sapiens, UniProt P0C264).
T6 construct: gene SBK3
In a few lines: as §1

The next test has as its target TAOK3 (Homo sapiens, UniProt Q9H2K8). In a few lines: as §1
For the next test, the target named is TGFBR2 (Homo sapiens, UniProt P37173). In a few lines: as §1
The next test addresses T7, VEGFR2 (Homo sapiens, UniProt P35968).
T7 construct: gene KDR
In a few lines: as §1

The next test has as its target T8, VPS34 (Homo sapiens, UniProt Q8NEB9).
T8 construct: gene PIK3C3
In a few lines:
as §1

The target in another test is T9, YANK3 (Homo sapiens, UniProt Q86UX6).
T9 construct: gene STK32C
In a few lines:
as §1

RET(M918T), sequence (P07949 whole entry M918T): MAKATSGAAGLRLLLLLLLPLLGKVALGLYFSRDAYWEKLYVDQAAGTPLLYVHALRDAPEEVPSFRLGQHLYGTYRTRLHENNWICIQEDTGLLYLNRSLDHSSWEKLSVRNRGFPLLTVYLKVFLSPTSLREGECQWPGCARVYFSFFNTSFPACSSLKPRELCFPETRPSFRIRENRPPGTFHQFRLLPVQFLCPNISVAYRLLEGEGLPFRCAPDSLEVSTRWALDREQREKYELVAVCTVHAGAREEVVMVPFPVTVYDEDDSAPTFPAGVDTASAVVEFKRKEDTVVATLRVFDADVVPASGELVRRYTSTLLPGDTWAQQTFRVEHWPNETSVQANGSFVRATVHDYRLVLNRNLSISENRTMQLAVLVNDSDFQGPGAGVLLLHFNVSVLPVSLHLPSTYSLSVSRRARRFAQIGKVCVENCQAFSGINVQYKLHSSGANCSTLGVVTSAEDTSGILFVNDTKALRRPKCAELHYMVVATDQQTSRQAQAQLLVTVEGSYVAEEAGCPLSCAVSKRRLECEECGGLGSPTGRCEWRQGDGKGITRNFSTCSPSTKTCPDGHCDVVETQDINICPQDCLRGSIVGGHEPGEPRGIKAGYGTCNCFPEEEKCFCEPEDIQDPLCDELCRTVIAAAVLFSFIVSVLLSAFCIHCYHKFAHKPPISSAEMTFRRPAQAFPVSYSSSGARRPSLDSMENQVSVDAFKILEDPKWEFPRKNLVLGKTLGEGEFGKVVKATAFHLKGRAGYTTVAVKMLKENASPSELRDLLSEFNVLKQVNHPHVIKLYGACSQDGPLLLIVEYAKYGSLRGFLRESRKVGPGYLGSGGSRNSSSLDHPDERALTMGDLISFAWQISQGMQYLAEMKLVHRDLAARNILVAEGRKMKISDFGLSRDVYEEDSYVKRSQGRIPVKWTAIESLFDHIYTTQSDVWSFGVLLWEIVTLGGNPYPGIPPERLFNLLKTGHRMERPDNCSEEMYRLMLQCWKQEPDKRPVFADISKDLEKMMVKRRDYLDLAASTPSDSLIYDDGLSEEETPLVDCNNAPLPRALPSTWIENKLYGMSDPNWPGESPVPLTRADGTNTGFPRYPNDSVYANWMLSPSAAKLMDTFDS
TGFBR2, sequence (P37173 whole entry): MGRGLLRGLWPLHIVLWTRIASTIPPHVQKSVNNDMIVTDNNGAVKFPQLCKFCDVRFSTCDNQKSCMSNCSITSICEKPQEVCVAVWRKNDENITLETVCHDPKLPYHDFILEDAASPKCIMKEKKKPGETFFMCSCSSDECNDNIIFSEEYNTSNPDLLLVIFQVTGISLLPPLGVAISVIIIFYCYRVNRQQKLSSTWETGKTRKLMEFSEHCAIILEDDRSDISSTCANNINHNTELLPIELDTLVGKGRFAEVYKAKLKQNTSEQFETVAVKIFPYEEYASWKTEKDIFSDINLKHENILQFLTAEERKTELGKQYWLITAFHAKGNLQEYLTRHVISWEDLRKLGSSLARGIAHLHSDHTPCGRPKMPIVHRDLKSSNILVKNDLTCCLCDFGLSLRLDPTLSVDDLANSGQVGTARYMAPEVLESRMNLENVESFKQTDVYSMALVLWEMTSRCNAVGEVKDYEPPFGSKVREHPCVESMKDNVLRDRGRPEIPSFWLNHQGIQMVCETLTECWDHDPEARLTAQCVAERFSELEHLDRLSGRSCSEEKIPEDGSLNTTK
RIPK2, sequence (O43353 whole entry): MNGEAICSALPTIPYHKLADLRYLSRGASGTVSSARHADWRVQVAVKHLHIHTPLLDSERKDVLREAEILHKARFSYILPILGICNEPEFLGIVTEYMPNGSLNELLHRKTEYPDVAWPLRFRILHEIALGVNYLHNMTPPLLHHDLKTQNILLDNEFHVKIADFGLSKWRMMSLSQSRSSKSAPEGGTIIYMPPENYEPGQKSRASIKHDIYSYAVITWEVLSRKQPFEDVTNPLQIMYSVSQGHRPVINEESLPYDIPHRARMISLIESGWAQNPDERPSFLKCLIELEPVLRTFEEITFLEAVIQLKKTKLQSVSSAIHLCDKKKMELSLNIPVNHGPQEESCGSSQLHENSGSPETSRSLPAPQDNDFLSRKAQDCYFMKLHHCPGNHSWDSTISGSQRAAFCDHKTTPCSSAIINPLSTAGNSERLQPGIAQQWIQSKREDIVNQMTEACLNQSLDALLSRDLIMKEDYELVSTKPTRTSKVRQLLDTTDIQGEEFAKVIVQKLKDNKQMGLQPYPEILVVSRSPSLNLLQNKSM
MARK3, sequence (P27448 whole entry): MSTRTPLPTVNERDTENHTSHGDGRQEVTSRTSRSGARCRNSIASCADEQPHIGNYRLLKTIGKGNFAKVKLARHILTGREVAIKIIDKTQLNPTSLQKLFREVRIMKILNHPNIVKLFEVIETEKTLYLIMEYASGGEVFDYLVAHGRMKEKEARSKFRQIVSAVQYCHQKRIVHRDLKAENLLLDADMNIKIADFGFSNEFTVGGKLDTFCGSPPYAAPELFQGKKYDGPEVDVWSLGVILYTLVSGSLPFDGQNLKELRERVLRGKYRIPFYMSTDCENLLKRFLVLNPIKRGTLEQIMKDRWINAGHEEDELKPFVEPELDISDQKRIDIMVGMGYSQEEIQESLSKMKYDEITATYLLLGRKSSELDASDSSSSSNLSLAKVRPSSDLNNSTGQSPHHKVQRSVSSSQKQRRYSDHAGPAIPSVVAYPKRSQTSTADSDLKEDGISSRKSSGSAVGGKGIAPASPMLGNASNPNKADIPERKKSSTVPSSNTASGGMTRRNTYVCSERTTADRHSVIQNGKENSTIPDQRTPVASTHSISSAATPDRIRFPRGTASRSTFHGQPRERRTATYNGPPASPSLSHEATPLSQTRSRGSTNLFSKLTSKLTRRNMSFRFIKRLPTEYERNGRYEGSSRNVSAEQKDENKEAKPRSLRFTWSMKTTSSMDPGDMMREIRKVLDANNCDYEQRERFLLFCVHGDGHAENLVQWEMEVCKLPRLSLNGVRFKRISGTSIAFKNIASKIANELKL
T3 sequence (Q92918 whole entry): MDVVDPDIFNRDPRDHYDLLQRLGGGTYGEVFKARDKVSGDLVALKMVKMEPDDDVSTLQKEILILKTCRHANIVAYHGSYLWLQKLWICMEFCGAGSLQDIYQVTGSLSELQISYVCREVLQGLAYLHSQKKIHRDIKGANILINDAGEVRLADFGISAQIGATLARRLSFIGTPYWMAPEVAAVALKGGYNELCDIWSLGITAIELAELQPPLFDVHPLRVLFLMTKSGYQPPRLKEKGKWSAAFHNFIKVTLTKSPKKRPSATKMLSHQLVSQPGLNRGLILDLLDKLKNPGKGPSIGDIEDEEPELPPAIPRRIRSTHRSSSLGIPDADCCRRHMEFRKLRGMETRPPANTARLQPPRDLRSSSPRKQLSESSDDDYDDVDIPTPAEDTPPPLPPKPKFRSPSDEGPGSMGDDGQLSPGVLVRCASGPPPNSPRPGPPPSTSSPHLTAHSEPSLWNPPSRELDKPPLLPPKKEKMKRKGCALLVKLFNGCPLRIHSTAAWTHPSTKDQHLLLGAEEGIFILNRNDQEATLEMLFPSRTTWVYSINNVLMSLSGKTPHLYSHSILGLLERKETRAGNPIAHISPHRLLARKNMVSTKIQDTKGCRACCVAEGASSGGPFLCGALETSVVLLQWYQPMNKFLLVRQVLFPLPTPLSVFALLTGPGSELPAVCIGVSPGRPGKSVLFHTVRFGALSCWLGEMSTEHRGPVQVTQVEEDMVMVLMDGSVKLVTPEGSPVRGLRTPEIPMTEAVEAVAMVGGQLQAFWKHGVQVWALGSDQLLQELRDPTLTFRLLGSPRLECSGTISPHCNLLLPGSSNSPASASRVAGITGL
PRKCI, sequence (P41743 whole entry): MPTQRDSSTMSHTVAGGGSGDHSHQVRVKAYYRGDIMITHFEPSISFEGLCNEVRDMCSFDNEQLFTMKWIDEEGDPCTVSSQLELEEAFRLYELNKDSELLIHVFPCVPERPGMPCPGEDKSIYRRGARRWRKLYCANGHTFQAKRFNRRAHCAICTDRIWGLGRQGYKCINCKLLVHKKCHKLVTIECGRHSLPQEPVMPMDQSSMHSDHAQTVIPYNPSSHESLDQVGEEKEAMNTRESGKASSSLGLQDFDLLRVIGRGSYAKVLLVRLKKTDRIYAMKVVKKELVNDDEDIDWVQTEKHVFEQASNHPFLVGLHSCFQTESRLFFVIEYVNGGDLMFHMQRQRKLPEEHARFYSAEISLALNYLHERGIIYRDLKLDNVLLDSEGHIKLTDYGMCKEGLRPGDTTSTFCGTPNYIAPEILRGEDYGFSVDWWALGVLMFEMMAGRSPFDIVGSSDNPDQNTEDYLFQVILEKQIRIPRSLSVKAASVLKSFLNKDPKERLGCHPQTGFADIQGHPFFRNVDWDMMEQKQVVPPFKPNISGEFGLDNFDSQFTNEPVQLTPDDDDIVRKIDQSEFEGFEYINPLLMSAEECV
HCK, sequence (P08631 whole entry): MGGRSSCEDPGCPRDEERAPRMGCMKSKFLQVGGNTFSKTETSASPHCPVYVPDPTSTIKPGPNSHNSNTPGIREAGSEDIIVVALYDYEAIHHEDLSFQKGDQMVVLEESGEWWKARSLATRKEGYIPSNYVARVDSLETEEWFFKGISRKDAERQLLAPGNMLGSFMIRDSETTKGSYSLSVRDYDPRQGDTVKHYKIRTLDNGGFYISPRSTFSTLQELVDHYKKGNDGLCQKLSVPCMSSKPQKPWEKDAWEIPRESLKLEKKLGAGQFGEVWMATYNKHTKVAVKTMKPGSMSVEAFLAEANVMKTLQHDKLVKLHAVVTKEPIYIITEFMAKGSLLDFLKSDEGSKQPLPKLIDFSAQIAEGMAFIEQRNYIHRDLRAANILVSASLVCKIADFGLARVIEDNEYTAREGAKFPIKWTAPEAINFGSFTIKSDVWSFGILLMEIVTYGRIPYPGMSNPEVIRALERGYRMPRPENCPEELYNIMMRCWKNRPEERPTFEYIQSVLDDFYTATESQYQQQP

In the case of `C=C(C)[C@H]1CC=C(C)C(=O)C1` [S-carvone], the remaining binding at 100 µM at ABL1-nonphosphorylated worked out at 76%; at BTK it was 70%; on CSNK1A1, 68%; on DCAMKL2, 87%; at HCK it was 76%; at HPK1 it was 80%. Also, the remaining binding at 100 µM came out at 100% at IRAK3; 91% at KIT(V559D,T670I); 71% on LCK; 87% on LOK; 68% at MARK3; 78% at MTOR. Further, the remaining binding at 100 µM at PCTK3 was found to be 85%; on PRKCI, 72%; at RET(M918T), 93%; on RIPK2, 97%; at SgK110 it was 93%; at TAOK3, 73%. Further, the remaining binding at 100 µM at TGFBR2 stood at 77%; on VEGFR2, 60%; at VPS34, 64%; at YANK3 it was 91%.

For the origin of these results see PMC10174618, “Monoterpenoid aryl hydrocarbon receptor allosteric antagonists protect against ultraviolet skin damage in female mice” (Nature Communications, 2023).
